settings: not given

Compound	melting point [°C]	boiling point [°C]	log10 Koc (L/kg)	log10 vapour pressure (mmHg)	ready biodegradability	log10 Henry constant (atm·m³/mol)	log10 Koa	log10 biodegradation half-life (days)
C[C@]12C[C@@H](O)[C@H]3[C@@H](CC[C@]4(O)C[C@@H](O)C[C@@H](O)[C@]34CO)[C@@]1(O)CC[C@@H]2C1=CC(=O)OC1	236	–	–	–	–	–	–	–
FC(F)(F)c1ccc(C(F)(F)F)cc1	–	116	–	–	–	–	–	–
CCS(=O)(=O)c1cccnc1S(=O)(=O)NC(=O)Nc1nc(OC)cc(OC)n1	177	–	1.71	–	–	–	–	–
NC(=O)OCC(O)COc1ccc(Cl)cc1 (stereo unspecified)	90	–	–	–	–	–	–	–
CCCC(Cl)CC (stereo unspecified)	–	123	–	–	–	–	–	–
COC(=O)[C@]12OC[C@]34[C@H]([C@@H](O)[C@@H]1O)[C@@]1(C)CC(=O)C(O)=C(C)[C@@H]1C[C@H]3OC(=O)[C@H](OC(=O)/C=C(\C)C(C)C)[C@@H]24	226	–	–	–	–	–	–	–
CCCCCCN1CCCC1=O	4	–	–	–	–	–	–	–
CN1CCN(C2=Nc3ccccc3Sc3ccc(Cl)cc32)CC1	119	–	–	–	–	–	–	–
C=C(C)C(=O)OC	-48	100	–	1.59	readily biodegradable	–	–	–
C[Si]1(C)N[Si](C)(C)N[Si](C)(C)N[Si](C)(C)N1	97.5	225	–	–	–	–	–	–
COP(=S)(OC)SCC(=O)N(c1ccc(Cl)cc1)C(C)C	51	–	–	–	–	–	–	–
CC1CCSC1 (stereo unspecified)	–	139	–	–	–	–	–	–
CNS(=O)(=O)c1ccc(C)cc1	78.5	–	–	–	–	–	–	–
CC(=O)Oc1cccnc1	–	–	–	–	readily biodegradable	–	–	–
CN(C)c1ccccc1N	–	218	–	–	–	–	–	–
CCCCN(CCN(CCCC)C(=O)N1CCOCC1)C(=O)N1CCOCC1	41.5	–	–	–	–	–	–	–
CCCCCCCC(=O)NN	88	–	–	–	–	–	–	–
Cc1cc(Cl)ccc1O[C@H](C)C(=O)O	–	–	–	-5.58	–	–	–	–
Nc1ccc2[nH]ccc2c1	132	–	–	–	–	–	–	–
CN(C)C(=O)NC1CCCCCCC1	138	–	–	–	–	–	–	–
CC12CCC(C(=O)C1=O)C2(C)C (racemic)	199	–	–	–	–	–	–	–
O=S(=O)(O)C(F)(F)C(F)(F)C(F)(F)C(F)(F)F	–	211	–	–	–	–	–	–
CCCc1cccc(C)c1	-82.5	182	–	0.425	–	–	–	–
BrCC=Cc1ccccc1	34	–	–	–	–	–	–	–

Compound	melting point [°C]	boiling point [°C]	log10 Koc (L/kg)	log10 vapour pressure (mmHg)	ready biodegradability	log10 Henry constant (atm·m³/mol)	log10 Koa	log10 biodegradation half-life (days)
CCOP(=S)(OCC)SCCSCC	-25	–	3.22	-4.01	–	–	–	–
Cc1nc(N(C)C)nc(OC(=O)N(C)C)c1C	90.5	–	1.9	-5.14	–	–	–	–
Clc1ccc(Cl)c(Br)c1	35	226	–	–	–	–	–	–
O=c1oc2ccccc2c(O)c1C(CC(O)c1ccc(Cl)cc1)c1ccc(Cl)s1 (stereo unspecified)	104	–	–	–	–	–	–	–
CCCc1ccc2c(c1)OCO2	–	228	–	–	–	–	–	–
ClCC(Cl)CCl	-14.7	157	–	0.567	not readily biodegradable	-3.46	–	–
Clc1cc(Cl)cc(C2(CC(Cl)(Cl)Cl)CO2)c1 (stereo unspecified)	42.8	–	3.75	–	–	–	–	–
CS(=O)(=O)Nc1ccc([N+](=O)[O-])cc1Oc1ccccc1	144	–	–	–	–	–	–	–
CC1CC(C)(C)CC(OOC(C)(C)C)(OOC(C)(C)C)C1 (stereo unspecified)	-30	–	–	–	not readily biodegradable	–	–	–
C=CC1(C)CC(OC(=O)CO)C2(C)C(C)CCC3(CCC(=O)C32)C(C)C1O (stereo unspecified)	170	–	–	–	–	–	–	–
CCOc1ccc(C(=O)O)cc1	198	–	–	–	–	–	–	–
C=Cc1ccccc1	-31	145	2.96	0.806	readily biodegradable	-2.56	–	–
CCN(CC)C(=O)n1cnc(S(=O)(=O)c2c(C)cc(C)cc2C)n1	115	–	–	-10.6	–	–	–	–
C[C@@H]1CC[C@@]2(OC1)O[C@H]1C[C@H]3[C@@H]4CC[C@H]5C[C@@H](O)CC[C@]5(C)[C@H]4CC[C@]3(C)[C@H]1[C@@H]2C	197	–	–	–	–	–	–	–
Clc1cccc(Br)c1	-21.5	196	–	–	–	–	–	–
CCC(C)C(=O)NC1CCC(=O)N(CCc2ccccc2)C1=O (stereo unspecified)	108	–	–	–	–	–	–	–
CCCCCCCCCCCCCCCCc1ccccc1	27	385	–	-5.45	–	–	–	–
CCCCCCCCCCCCCCCC(=O)Cl	12	–	–	–	–	–	–	–
Oc1cccc2cccnc12	75.5	267	–	-2.78	not readily biodegradable	–	–	–
CCN=C=O	–	60	–	–	–	–	–	–
COC(=O)CCO	–	179	–	–	–	–	–	–
CCCCOC(=O)CC	-89	147	–	0.645	–	–	–	–
NC(=S)Nc1cccc2ccccc12	198	–	–	–	–	–	–	–
C=CCC(=O)OCC	–	119	–	–	–	–	–	–

Compound	melting point [°C]	boiling point [°C]	log10 Koc (L/kg)	log10 vapour pressure (mmHg)	ready biodegradability	log10 Henry constant (atm·m³/mol)	log10 Koa	log10 biodegradation half-life (days)
COc1cc2c(c(O)c1OC)CCN(C)[C@H]2C	152	–	–	–	–	–	–	–
CCCCCCCCCCCCCC#N	19	–	–	–	–	–	–	–
COP(=O)(OC)OC	-46	197	–	-0.0706	not readily biodegradable	-8.14	–	–
CCN(CC)C(=O)c1ccccc1C(=O)N(CC)CC	36	–	–	–	–	–	–	–
CC(=O)Nc1ccc(Br)cc1	–	–	1.95	–	–	–	–	–
O=P(Oc1ccccc1)(Oc1ccccc1)Oc1ccccc1	50.5	–	–	-5.2	readily biodegradable	–	–	–
OC1c2ccccc2-c2ccccc21	154	–	–	–	–	–	–	–
CC(C)S(=O)(=O)O	-37	–	–	–	–	–	–	–
CCCCCCCCCCCC(=O)OC(C)C	–	–	–	-2.57	–	–	–	–
Fc1ccccc1C(F)(F)F	–	114	–	1.58	–	–	–	–
O=S(=O)(Cl)c1ccc(Cl)cc1	51	–	–	–	–	–	–	–
O=C1CCCCCC1	–	178	–	0.0969	–	–	–	–
O=C1CN=C(c2ccccc2)c2cc(Cl)ccc2N1CC1CC1	146	–	–	–	–	–	–	–
Cc1cccc2cc[nH]c12	85	266	–	–	–	–	–	–
Brc1ccc(Oc2ccccc2)c(Br)c1	–	–	–	–	–	–	8.37	–
O=[N+]([O-])c1cccc(CO)c1	30.5	–	–	–	–	–	–	–
CC1=C(/C=C/C(C)=C/C=C/C(C)=C/C(=O)O)C(C)(C)CCC1	181	–	–	–	–	–	–	–
FC1(F)C(F)(F)C(F)(F)C2(F)C(F)(F)C(F)(F)C(F)(F)C(F)(F)C2(F)C1(F)F (stereo unspecified)	-10	–	–	–	–	–	–	–
CCOC(=O)C(C)O (stereo unspecified)	–	154	–	0.574	–	–	–	–
CC(=O)CC(=O)Nc1ccc(Cl)cc1	132	–	–	–	–	–	–	–
Brc1ccccn1	–	195	–	-0.114	–	–	–	–
O=[N+]([O-])c1cccs1	46.5	224	–	–	–	–	–	–
OC1(c2ccc(Cl)c(C(F)(F)F)c2)CCN(CCCC(c2ccc(F)cc2)c2ccc(F)cc2)CC1	106	–	–	–	–	–	–	–
COc1cc(C)cc(C)c1	–	194	–	–	–	–	–	–

Compound	melting point [°C]	boiling point [°C]	log10 Koc (L/kg)	log10 vapour pressure (mmHg)	ready biodegradability	log10 Henry constant (atm·m³/mol)	log10 Koa	log10 biodegradation half-life (days)
C[C@]12C=CC(=O)C=C1CC[C@H]1[C@@H]3C[C@@H](O)[C@](O)(C(=O)CO)[C@@]3(C)C[C@H](O)[C@@]12F	270	–	–	–	–	–	–	–
CNC(=O)N(C)c1nc2ccccc2s1	120	–	2.8	-6.95	–	–	–	–
Cc1ccc(C)c(Cc2ccccc2)c1	–	–	–	–	not readily biodegradable	–	–	–
CC1=C(O)C(=O)CC1	106	–	–	–	–	–	–	–
O=[N+]([O-])c1ccccc1/C=C/c1ccccc1	73	–	–	–	–	–	–	–
CC(=O)c1c(F)c(F)c(F)c(F)c1F	130	–	–	–	–	–	–	–
O=C(Nc1ccccc1)c1cc2ccccc2cc1O	248	–	–	–	not readily biodegradable	–	–	–
CC(C)c1ncc([N+](=O)[O-])n1C	60	–	–	–	–	–	–	–
COC(=O)C(Br)CBr (stereo unspecified)	–	206	–	–	–	–	–	–
C=C1/C(=C/C=C2/CCC[C@]3(C)[C@@H]([C@H](C)CCCC(C)C)CC[C@@H]23)C[C@@H](O)C[C@@H]1O	136	–	–	–	–	–	–	–
O=P(OCCCl)(OCCCl)OCCCl	-35	330	–	-1.21	not readily biodegradable	–	–	–
COC(=O)[C@H](Cc1ccccc1)NC(=O)[C@@H](N)CC(=O)O	246	–	–	–	–	–	–	–
COB1OB(OC)OB(OC)O1	10	130	–	–	–	–	–	–
CCC(c1ccccc1)c1c(O)c2ccccc2oc1=O (stereo unspecified)	180	–	–	–	–	–	–	–
CCCCCCCCCCCCCC1CCCCC1	18.5	346	–	-5.04	–	–	–	–
CNC(=O)Oc1ccc(N(C)C)c(C)c1	93.5	–	2	–	readily biodegradable	–	–	–
CC(=O)c1ccccc1O	5	218	–	–	–	–	–	–
CCC1(c2ccccc2)C(=O)NCNC1=O	282	–	–	–	–	–	–	–
Cc1ccc(NC(=S)Nc2ccc(C)cc2)cc1	183	–	–	–	–	–	–	–
CCC1(C2=C[C@H]3CC[C@@H](C2)C3)C(=O)NC(=O)NC1=O	213	–	–	–	–	–	–	–
NS(=O)(=O)c1ccc(SCCCO)c([N+](=O)[O-])c1	163	–	–	–	–	–	–	–
N#CC(Br)c1ccccc1 (stereo unspecified)	29	–	–	–	–	–	–	–
N#CC(F)(F)F	–	-68.8	–	–	–	–	–	–
CC[C@H]1C[N@@]2CC[C@H]1C[C@H]2[C@H](O)c1ccnc2ccc(OCCC(C)C)cc12	152	–	–	–	–	–	–	–

Compound	melting point [°C]	boiling point [°C]	log10 Koc (L/kg)	log10 vapour pressure (mmHg)	ready biodegradability	log10 Henry constant (atm·m³/mol)	log10 Koa	log10 biodegradation half-life (days)
OCCS	–	158	–	0.244	–	–	–	–
CC(F)(Cl)Cl	-104	32	–	2.78	–	–	–	–
CC(C)OC(=O)c1ccccc1O	–	238	–	–	–	–	–	–
COC(=O)C=CC(=O)OC	–	–	–	–	readily biodegradable	–	–	–
O=C(O)CSCc1ccccc1	61	–	–	–	–	–	–	–
Cc1cccc2ccccc12	-30.4	245	3.36	-1.17	not readily biodegradable	-3.29	–	0.962
COC(=O)CCC#N	–	211	–	–	–	–	–	–
CC(=O)c1c(C)c[nH]c1C	138	–	–	–	–	–	–	–
CC(O)C(O)CO (stereo unspecified)	–	–	–	-2.47	–	–	–	–
CC(=O)c1cccc(Cl)c1	–	244	–	–	–	–	–	–
N#CCc1ccccc1Cl	24	251	–	–	–	–	–	–
CN=C=O	-45	39.5	–	2.54	–	–	–	–
CC1(C)[C@H](/C=C2\CCSC2=O)[C@@H]1C(=O)OCc1coc(Cc2ccccc2)c1	31	–	–	–	–	–	–	–
C=C(C)C1CCC(C)(O)CC1 (stereo unspecified)	32.5	210	–	–	–	–	–	–
CC(=O)OC1CCCCC1C (stereo unspecified)	–	–	–	–	readily biodegradable	–	–	–
CC(C)C(=O)C(=O)O	31.5	170	–	–	–	–	–	–
C[Se][Se]C	–	156	–	0.455	–	–	–	–
CCCCCCCCCCCCCCCCCCCCCCO	72.5	–	–	–	–	–	–	–
O=C(O)c1ccc(Cl)c([N+](=O)[O-])c1	183	–	–	–	–	–	–	–
C=C(C)CC(C)C	-124	81.6	–	1.98	–	–	–	–
C#C	-80.7	-84.7	–	4.56	–	–	–	–
CCOP(=S)(OCC)OP(=S)(OCC)OCC	–	–	–	-3.98	–	–	–	–
C1CCC2CC2C1 (stereo unspecified)	–	116	–	1.36	–	–	–	–

same assay, conditions: fish

Compound	log10 BCF	log10 biotransformation half-life (days)
CCOP(=S)(OCC)SCCSCC	2.34	0.03
CCCCCC(C)CCCC(C)C (stereo unspecified)	–	1.02
ClCC(Cl)CCl	1.11	-0.53
CC1CC(C)(C)CC(OOC(C)(C)C)(OOC(C)(C)C)C1 (stereo unspecified)	3.96	–
C=Cc1ccccc1	1.13	–
COP(=O)(OC)OC	0.15	–
O=P(Oc1ccccc1)(Oc1ccccc1)Oc1ccccc1	2.28	-0.76
Cc1ccc(C)c(Cc2ccccc2)c1	3.14	0.45
O=C(Nc1ccccc1)c1cc2ccccc2cc1O	0.81	–
O=P(OCCCl)(OCCCl)OCCCl	0.11	-0.66
Cc1cccc2ccccc12	1.73	–

From the OPERA property sets (Mansouri et al. 2018)
